ChEMBL document CHEMBL2202958, “Development of potent macrocyclic inhibitors of genotype 3a HCV NS3/4A protease” (Bioorg Med Chem Lett, 2012)

Columns and labels:
[1] = Inhibition of HCV3a NS3/4A protease; set-up: species or system Hepatitis C virus subtype 3a
Hepatitis C virus [2] = test: Antiviral activity against HCV1b by cell based replicon assay; assay type: functional, organism-based, Hepacivirus hominis; conditions: genotype 1b
Hepatitis C virus [3] = test: Inhibition of HCV1b NS3/4A protease; set-up: species or system Hepatitis C virus subtype 1b
[4] = Drug level in Sprague-Dawley rat liver at 5 mg/kg, po after 4 hrs; assay type: ADME, organism-based; set-up: dose 5 mg/kg, route oral; conditions: read-out: Drug uptake

| SMILES | Ki [1] | IC50 (Hepatitis C virus [2]) | Ki (Hepatitis C virus [3]) | concentration at 4 h [4] |
| --- | --- | --- | --- | --- |
| C=C[C@@H]1C[C@]1(NC(=O)[C@@H]1C[C@@H]2CN1C(=O)[C@H](C(C)(C)C)NC(=O)OCCC/C=C/c1ccc3ccnc(c3c1)O2)C(=O)NS(=O)(=O)C1CC1 | 475 nM | 4.5 nM | 0.04 nM |  |
| C=C[C@@H]1C[C@]1(NC(=O)[C@@H]1C[C@@H]2CN1C(=O)[C@H](C(C)C)NC(=O)N(C)CCCCCc1cc3c(cc(-c4ccccc4)nc3cc1OC)O2)C(=O)NS(=O)(=O)C1CC1 | 5.8 nM |  | < 0.16 nM | 0.304 µM |
| C=C[C@@H]1C[C@]1(NC(=O)[C@@H]1C[C@@H]2CN1C(=O)[C@H](C1CCCC1)NC(=O)OCC(C)(C)C/C=C/c1cc3c(cc(-c4ccccc4)nc3cc1OC)O2)C(=O)NS(=O)(=O)C1CC1 | 17 nM |  | < 0.16 nM | 41 µM |
